Laboratory results from PMC8956739, “A synthetic lipopeptide targeting top-priority multidrug-resistant Gram-negative pathogens” (Nature Communications, 2022).
Values joined by “and” are separate entries in the source; they are usually repeats but may differ in a detail not shown here. Equal entries are not always repeated. Residues, ends and D or L forms follow the SMILES beside them.

Key:
Swiss mice, kidney = assay: Nephrotoxicity in mice (kidney histopathology); type: in vivo, mouse; conditions: for Kidney histopathology (SQS Score): 72 mg/kg/d subcutaneously in six divided doses every 2 h, n = 3
Outline: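 Female Swiss mice (7-week-old, 22–28 g) received lipopeptides in saline either s.c. at 12 mg/kg ×6 every 2 h (total 72 mg/kg, n = 3) or i.p. at 20 or 25 mg/kg ×6 every 2 h (total 120 mg/kg, n = 6; 150 mg/kg, n = 3). Right kidney collected 20 h after last dose, fixed in 10% buffered formalin (pH 7.4), histology scored blinded.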

A. baumannii AB5075 = assay: Transcriptomic analysis (RNA-Seq) of bacteria; type: cell-based, Acinetobacter baumannii; conditions: for logFC (Differential gene expression for all genes), Geneid ABUW_RS00005 / logFC (Differential gene expression for all genes), Geneid ABUW_RS00020 / logFC (Fold change), gene ABUW_RS00010 / logFC (Fold change), gene ABUW_RS00030 / logFC (Fold change), gene ABUW_RS00035 / logFC (Fold change), gene recF (ABUW_RS00015) / 4h_1h logFC (Differential gene expression for all genes), Geneid ABUW_RS00005 / 4h_1h logFC (Differential gene expression for all genes), Geneid ABUW_RS00010 / 4h_1h logFC (Differential gene expression for all genes), Geneid ABUW_RS00015 / 4h_1h logFC (Differential gene expression for all genes), Geneid ABUW_RS00020: RNA-Seq A. baumannii AB5075; for log2FC, gene ABUW_RS01945 (acyl-CoA thioesterase II) / log2FC, gene ABUW_RS02545 (acyl-CoA thioesterase) / log2FC, gene ABUW_RS05045 (acyl-CoA thioesterase) / log2FC, gene ABUW_RS17575 (acyl-CoA thioesterase): pathway Fatty Acid and Lipid Degradation; for 4h_1h logFC (Differential gene expression for all genes), Geneid ABUW_RS00005 / 4h_1h logFC (Differential gene expression for all genes), Geneid ABUW_RS00010 / 4h_1h logFC (Differential gene expression for all genes), Geneid ABUW_RS00015 / 4h_1h logFC (Differential gene expression for all genes), Geneid ABUW_RS00020: 4h vs 1h
Procedure: Mid-log phase A. baumannii AB5075 (~10^8 CFU/mL) in CaMHB was treated with colistin (2 and 8 μg/mL), F287, F319 or F365 (equimolar concentration to colistin) for 1 and 4 h. Total RNA was extracted using TRIzol Reagent (Invitrogen, USA) and RNeasy Mini Kit (Qiagen, Germany). Quality check of RNA samples was conducted with NanoDrop (Thermo Fisher Scientific, USA) and Agilent 2100 Bioanalyzer (Agilent Technologies, USA) for sequencing (150 bp paired-end) at Genewiz (Shanghai, China). Raw reads were aligned to A. baumannii AB5075 genome (GCF_000963815, https://www.ncbi.nlm.nih.gov/assembly/GCF_000963815.1/) using subread-aligner (subread 2.0.1) and summarized by featureCounts (subread 2.0.1). Principal component analysis (PCA) was conducted with mixOmics 6.14.1 in R. Differentially expressed genes were determined using limma 3.46.0 with a combination of fold change ≥ 2 and false discovery rate (FDR, by Benjamini–Hochberg algorithm) adjusted P-value ≤ 0.05 (n = 3). Enrichment analysis of gene differential expression in AB5075 was conducted using BioCyc (A. baumannii AB5075, version 25.5). UpSetR 1.4.0, ComplexHeatmap 2.6.2 and circlize 0.4.13 were used for data visualization. Raw data were deposited in Short Reads Archive (SRA) database under accession numbers SRR15235669-SRR15235725.

P. aeruginosa ATCC 27853 = assay: Neutropenic mouse bloodstream infection model; type: in vivo; conditions: single IV dose 4 mg/kg; for Log10 CFU/mL blood at 4 h, Mean / Δlog10 CFU/mL blood (mean) / Log10 CFU/mL blood at 4 h, single mouse: 4 h; for Δlog10 CFU/mL blood (mean): treated minus control, mean of replicates; for Δlog10 CFU/mL blood (mean) / Log10 CFU/mL blood at 4 h, single mouse / Delta Log10 CFU/mL blood at 4 h, single mouse: 4 mg/kg; for Delta Log10 CFU/mL blood at 4 h, single mouse: treated mouse minus mean of vehicle mice
Outline: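 Female Swiss mice made neutropenic with cyclophosphamide (150 mg/kg day −4, 100 mg/kg day −1), infected IV with 50 µL of 4 × 10^8 CFU/mL. Lipopeptide 4 mg/kg (free base) IV at 2 h post-inoculation, n = 3. Efficacy = Δlog10 CFU/mL blood versus saline at 4 h post-dose.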

[1] = mouse, in vivo, ip, 60 mg/kg/day

CCCCCCCC(=O)N[C@@H](CCN)C(=O)N[C@H](C(=O)N[C@@H](CCN)C(=O)N[C@H]1CCNC(=O)[C@H]([C@@H](C)O)NC(=O)[C@H](CCN)NC(=O)[C@H](CCN)NC(=O)[C@H](CC)NC(=O)[C@@H](CC(C)C)NC(=O)[C@H](CCN)NC1=O)[C@@H](C)O [Lipopeptide F319] (HELM PEPTIDE1{[CCCCCCCC(=O)[*:2]].[Dab].T.[Dab].[Dab].[Dab].[dL].[Abu].[Dab].[Dab].T}$PEPTIDE1,PEPTIDE1,5:R3-11:R2$$$V2.0)
Kidney histopathology (SQS Score) (Swiss mice, kidney): +1 (SQS + 1 = mild damage (overall score, 1 to <15))
Kidney histopathology, mice with the SQS score (Swiss mice, kidney; mouse, in vivo): 1/3
logFC (Differential gene expression for all genes), Geneid ABUW_RS00005 (A. baumannii AB5075; H vs Cont, 1h): -0.09763
logFC (Differential gene expression for all genes), Geneid ABUW_RS00020 (A. baumannii AB5075; H vs Cont, 1h): 0.4439
logFC (Fold change), gene ABUW_RS00010 (A. baumannii AB5075; H vs Cont, 1h): 0.5437
logFC (Fold change), gene ABUW_RS00030 (A. baumannii AB5075; H vs Cont, 1h): -0.5665
logFC (Fold change), gene ABUW_RS00035 (A. baumannii AB5075; H vs Cont, 1h): 1.083
logFC (Fold change), gene recF (ABUW_RS00015) (A. baumannii AB5075; H vs Cont, 1h): -0.2736
log2FC, gene ABUW_RS01945 (acyl-CoA thioesterase II) (A. baumannii AB5075; H vs Cont, 1h): 0.4348
log2FC, gene ABUW_RS02545 (acyl-CoA thioesterase) (A. baumannii AB5075; H vs Cont, 1h): 1.57
log2FC, gene ABUW_RS05045 (acyl-CoA thioesterase) (A. baumannii AB5075; H vs Cont, 1h): 0.3422
log2FC, gene ABUW_RS17575 (acyl-CoA thioesterase) (A. baumannii AB5075; H vs Cont, 1h): -0.5597
logFC (Differential gene expression for all genes), Geneid ABUW_RS00005 (A. baumannii AB5075; H vs Cont, 4h): -0.2808
logFC (Differential gene expression for all genes), Geneid ABUW_RS00020 (A. baumannii AB5075; H vs Cont, 4h): -0.01751
logFC (Fold change), gene ABUW_RS00010 (A. baumannii AB5075; H vs Cont, 4h): 1.173
logFC (Fold change), gene ABUW_RS00030 (A. baumannii AB5075; H vs Cont, 4h): -1.885
logFC (Fold change), gene ABUW_RS00035 (A. baumannii AB5075; H vs Cont, 4h): 0.8498
logFC (Fold change), gene recF (ABUW_RS00015) (A. baumannii AB5075; H vs Cont, 4h): -1.612
log2FC, gene ABUW_RS01945 (acyl-CoA thioesterase II) (A. baumannii AB5075; H vs Cont, 4h): -0.7411
log2FC, gene ABUW_RS02545 (acyl-CoA thioesterase) (A. baumannii AB5075; H vs Cont, 4h): 1.194
log2FC, gene ABUW_RS05045 (acyl-CoA thioesterase) (A. baumannii AB5075; H vs Cont, 4h): 0.6506
log2FC, gene ABUW_RS17575 (acyl-CoA thioesterase) (A. baumannii AB5075; H vs Cont, 4h): -1.957
4h_1h logFC (Differential gene expression for all genes), Geneid ABUW_RS00005 (A. baumannii AB5075; H): -0.8466
4h_1h logFC (Differential gene expression for all genes), Geneid ABUW_RS00010 (A. baumannii AB5075; H): 0.6539
4h_1h logFC (Differential gene expression for all genes), Geneid ABUW_RS00015 (A. baumannii AB5075; H): -1.958
4h_1h logFC (Differential gene expression for all genes), Geneid ABUW_RS00020 (A. baumannii AB5075; H): 0.139
logFC (Differential gene expression for all genes), Geneid ABUW_RS00005 (A. baumannii AB5075; L vs Cont, 1h): 0.2742
logFC (Differential gene expression for all genes), Geneid ABUW_RS00020 (A. baumannii AB5075; L vs Cont, 1h): 0.3388
logFC (Fold change), gene ABUW_RS00010 (A. baumannii AB5075; L vs Cont, 1h): 0.1491
logFC (Fold change), gene ABUW_RS00030 (A. baumannii AB5075; L vs Cont, 1h): 0.2512
logFC (Fold change), gene ABUW_RS00035 (A. baumannii AB5075; L vs Cont, 1h): -0.1567
logFC (Fold change), gene recF (ABUW_RS00015) (A. baumannii AB5075; L vs Cont, 1h): 0.1396
log2FC, gene ABUW_RS01945 (acyl-CoA thioesterase II) (A. baumannii AB5075; L vs Cont, 1h): 0.4255
log2FC, gene ABUW_RS02545 (acyl-CoA thioesterase) (A. baumannii AB5075; L vs Cont, 1h): 0.2059
log2FC, gene ABUW_RS05045 (acyl-CoA thioesterase) (A. baumannii AB5075; L vs Cont, 1h): -0.2352
log2FC, gene ABUW_RS17575 (acyl-CoA thioesterase) (A. baumannii AB5075; L vs Cont, 1h): 0.153
logFC (Differential gene expression for all genes), Geneid ABUW_RS00005 (A. baumannii AB5075; L vs Cont, 4h): 0.0635
logFC (Differential gene expression for all genes), Geneid ABUW_RS00020 (A. baumannii AB5075; L vs Cont, 4h): -0.109
logFC (Fold change), gene ABUW_RS00010 (A. baumannii AB5075; L vs Cont, 4h): 0.1358
logFC (Fold change), gene ABUW_RS00030 (A. baumannii AB5075; L vs Cont, 4h): 0.06806
logFC (Fold change), gene ABUW_RS00035 (A. baumannii AB5075; L vs Cont, 4h): 0.1484
logFC (Fold change), gene recF (ABUW_RS00015) (A. baumannii AB5075; L vs Cont, 4h): -0.1014
log2FC, gene ABUW_RS01945 (acyl-CoA thioesterase II) (A. baumannii AB5075; L vs Cont, 4h): 0.08809
log2FC, gene ABUW_RS02545 (acyl-CoA thioesterase) (A. baumannii AB5075; L vs Cont, 4h): -0.3183
log2FC, gene ABUW_RS05045 (acyl-CoA thioesterase) (A. baumannii AB5075; L vs Cont, 4h): 0.2863
log2FC, gene ABUW_RS17575 (acyl-CoA thioesterase) (A. baumannii AB5075; L vs Cont, 4h): 0.3089
4h_1h logFC (Differential gene expression for all genes), Geneid ABUW_RS00005 (A. baumannii AB5075; L): -0.004361
4h_1h logFC (Differential gene expression for all genes), Geneid ABUW_RS00010 (A. baumannii AB5075; L): -0.867
4h_1h logFC (Differential gene expression for all genes), Geneid ABUW_RS00015 (A. baumannii AB5075; L): -0.3076
4h_1h logFC (Differential gene expression for all genes), Geneid ABUW_RS00020 (A. baumannii AB5075; L): -0.09503
Log10 CFU/mL blood at 4 h, Mean (P. aeruginosa ATCC 27853): 4.01 Log10 CFU/mL blood
Δlog10 CFU/mL blood (mean) (P. aeruginosa ATCC 27853): −3.44 log10 CFU/mL blood
Log10 CFU/mL blood at 4 h, single mouse (P. aeruginosa ATCC 27853): 3.87 Log10 CFU/mL blood and 4.06 Log10 CFU/mL blood and 4.10 Log10 CFU/mL blood
Delta Log10 CFU/mL blood at 4 h, single mouse (P. aeruginosa ATCC 27853): -3.57 Log10 CFU/mL blood and -3.38 Log10 CFU/mL blood and -3.35 Log10 CFU/mL blood

Polymyxin B [reference compound]
Kidney histopathology (SQS Score) (Swiss mice, kidney): +5 (SQS + 5 = severe damage (overall score, >60))
Kidney histopathology, mice with the SQS score (Swiss mice, kidney; mouse, in vivo): 3/3
Kidney histological damage (Swiss mice, kidney; [1]): Moderate to severe
Kidney histological damage, mice with the given grade (Swiss mice, kidney; [1]): 6/6
Log10 CFU/mL blood at 4 h, Mean (P. aeruginosa ATCC 27853): 4.76 Log10 CFU/mL blood
Δlog10 CFU/mL blood (mean) (P. aeruginosa ATCC 27853): -2.69 log10 CFU/mL blood
Δlog10 CFU/mL blood (mean) (P. aeruginosa ATCC 27853; listed as PMB): −2.69 log10 CFU/mL blood
Log10 CFU/mL blood at 4 h, single mouse (P. aeruginosa ATCC 27853): 4.60 Log10 CFU/mL blood and 4.85 Log10 CFU/mL blood and 4.82 Log10 CFU/mL blood
Delta Log10 CFU/mL blood at 4 h, single mouse (P. aeruginosa ATCC 27853): -2.84 Log10 CFU/mL blood and -2.60 Log10 CFU/mL blood and -2.63 Log10 CFU/mL blood
